[5FU] = 5-fluorouracil base, with d sugar it is 5-fluoro-2'-deoxyuridine (FdU); d = 2'-deoxy (DNA); r = 2'-OH (RNA)
Experiments:
[1] = test system: human colon cancer RKO cell line; assay: Clonogenic assay in RKO cells; assay type: cell-based; conditions: for IC50: 6 hr exposure, colonies counted after 8 days, mean ± S.D., at least 3 experiments
Description: RKO cells were plated in 6-well plates at a density of 600 cells/well. On the following day, cells were transfected with ssiRNA/LF2000 complexes for 6 hr after which time, the growth medium was replaced. Similarly, FdU was added to wells for 6 hr followed by medium replacement. After 8 days, cell colonies were fixed with Trypan blue solution (75% methanol/25% acetic acid/0.25% trypan blue), washed, and air-dried before counting colonies >50 cells.

[2] = test system: p53, Fas, cleaved PARP, γH2AX, p-ATM; assay: Immunoblot of DNA damage and apoptosis signaling proteins, time course; assay type: cell-based, human; conditions: RKO cells, ssiRNA 10 nM, 0-72 hr
Description: FIG. 5 illustrates time-dependent effects of FdU-containing ssiRNAs on protein expression. RKO cells were transfected with various TS6 ssiRNAs (10 nM). After 6 hr, the medium was replaced, and cells were harvested for immunoblot blot analysis at the following times: before39 transfection (pre) and 0, 24, 48, and 72 hr after transfection. Images shown are representative blots from at least 4 different experiments; and
(§1) Protein concentrations of cell lysates were determined using the DC Protein Assay (Bio-Rad; Hercules, Calif.). Equal amounts of protein (30 μg) from each cell lysate were resolved on SDS-PAGE using the method of Laemmli (Reference 19) and transferred onto 0.45 μm nitrocellulose membranes (Bio-Rad). Membranes were blocked and incubated overnight with primary antibodies at 4° C. The following antibodies were used in the experiments: anti-TS (Clone 4H4B1; Invitrogen), anti-TS (#5449; Cell Signaling; San Francisco, Calif.), anti-p21 Waf1/Cip1 (#2947; Cell Signaling), anti-p53 (#sc-126; Santa Cruz Biotechnology; Santa Cruz, Calif.), anti-PARP (#9542; Cell Signaling), anti-Fas (#4233; Cell Signaling), anti-phospho-histone H2A.X (Ser139) (#2577; Cell Signaling), anti-histone H2A.X (#7631; Cell Signaling), anti-phospho-ATM (pS1981; EPITOMICS Inc.; Burlingame, Calif.), anti-ATM (#A1106; Sigma), and anti-α-tubulin (EMD Biosciences; San Diego, Calif.). After multiple TBST washes (1×TBS, 0.1% Tween-20), membranes were incubated with corresponding horseradish peroxidase-conjugated secondary antibodies (Bio-Rad) for 1 hr at room temperature. Proteins were detected by the enhanced chemiluminescence method (SuperSignal West Pico substrate; Pierce; Rockford, Ill.). Quantitation of signal intensities was performed by densitometry on a Xerox scanner using NIH IMAGEJ software.

[3] = test system: thymidylate synthase (TS) protein; assay: Immunoblot analysis of TS protein (free and ITC-bound), Odyssey quantitation; assay type: cell-based, human; conditions: RKO cells; for formation of the ITC immediately after transfection: ssiRNA 10 nM, 0 hr after 6 hr transfection
[4] = test system: human colon cancer RKO cell line; assay: Cell proliferation assay (WST-1) in RKO cells; assay type: cell-based; conditions: for IC50: 6 hr exposure then 96 hr growth, mean ± S.D., at least 3 experiments
Description: RKO cells were plated in 96-well plates at a density of 800 cells/well. On the following day, cells were incubated with ssiRNA/LF2000 complexes for 6 hr, after which time, the growth medium was replaced, and cells were grown for an additional 96 hr. Similarly, RKO cells were treated with FdU (#F0503, Sigma) for 6 hr followed by medium replacement and then allowed to grow for an additional 96 hr. Cell proliferation/viability was quantified by the WST-1 assay (Roche; Indianapolis, Ind.).

[5] = test system: thymidylate synthase (TS) protein; assay: Immunoblot analysis of TS protein (free and ITC-bound), Odyssey quantitation; assay type: cell-based, human; conditions: RKO cells, ssiRNA 1 nM, 48 hr; for Free TS (%) / ITC-Bound TS (%): normalized to free TS protein in mock-transfected cells (LF2000) set to 100%, mean ± S.D., 6 experiments
Description: (§2) FIGS. 1A-B illustrate the effect of FdU incorporation in ssiRNA on TS protein expression. RKO cells were transfected with TS6 ssiRNAs (1 nM) containing various 3′-overhangs. After 6 hr, the medium was replaced. After an additional 48 hr, cells were harvested and processed for immunoblot and qPCR analysis as described in the Materials and Methods section. (A) Representative blot from 4 experiments. (B) All qPCR values represent the mean±S.D. from at least 3 separate experiments performed in triplicate. The normalized amount of TS mRNA from mock-transfected cells (LF2000) was set to 1.0 and all other values compared against that value. ITC, inhibitory ternary complex;
Cells were plated at a density of 1.5×10^5 cells/well. On the following day, ssiRNAs were complexed with Lipofectamine 2000 (LF2000, Invitrogen) in serum-free RPMI-1640 medium and added to the plated cells. After 48 hr, cells were rinsed with PBS and scraped in cell lysis buffer (10 mM Tris pH7.4, 150 mM NaCl, 1 mM EDTA, 1% IGEPAL, 0.5% sodium deoxycholate, and 0.1% SDS) containing freshly added Protease Inhibitor Cocktail (Sigma; St. Louis, Mo.), 1 mM phenylmethylsulfonyl fluoride, and phosphatase inhibitors (Sigma). Lysates were sonicated and then centrifuged at 14,000 rpm for 30 min at 4° C. to remove debris. Cell lysates were stored at −80° C. for future use. For mRNA analysis, total RNA was extracted using Trizol (Invitrogen) and stored at −80° C. for future use.
as §1
Immunoblots were prepared as described above. After incubation with anti-TS polyclonal antibody, membranes were blocked with the Odyssey blocking buffer and incubated with IRDye 800CW goat anti-rabbit antibody (LI-COR Biosciences; Lincoln, Nebr., USA) according to the manufacturer instructions. The fluorescent signal was detected and quantified using the Odyssey infrared imaging system (LI-COR).

TS mRNA = assay: Real time qRT-PCR analysis of TS mRNA; assay type: cell-based, human; conditions: RKO cells, ssiRNA 1 nM, 48 hr
Description: as §2
Cells were plated at a density of 1.5×10^5 cells/well. […]
The first-strand cDNA was synthesized using 1.0 μg total RNA and the iScript™ Reverse Transcription Supermix for real-time quantitative polymerase chain reaction (qRT-PCR) (Bio-Rad; Hercules, Calif.). PCR was performed in triplicate using the SsoFast™ Probes Supermix (Bio-Rad) in a final reaction volume of 10 μL with gene-specific primer/probe sets, and a standard thermal cycling procedure (40 cycles) on a Bio-Rad CFX96™ Real-Time PCR System. mRNA levels of TS and 18S RNA were assessed using the TaqMan Gene Expression real-time PCR assays (Applied Biosystems; assay ID: Hs00426586_m1 and Hs03928990_g1, respectively). Results were expressed as the threshold cycle (Ct). […]

RKO cells = assay: Flow cytometry, FITC Annexin V apoptosis detection; assay type: cell-based, human; conditions: ssiRNA 10 nM, after 72 hr
Description: FIGS. 6A-B illustrate induction of apoptosis after transfection of FdU-containing ssiRNAs. RKO cells were transfected with various TS6 ssiRNAs (10 nM). After 6 hr, the medium was replaced with fresh medium. After 72 hr, cells were harvested, fixed, stained, and analyzed by flow cytometry as described in the Materials and Methods section. (A) Representative cytometry images from one experiment. Lower left quadrant represents viable cells; lower right quadrant, early apoptotic cells; upper right quadrant, late apoptotic cells; upper left quadrant, necrotic cells. (B) Percentage values represent the mean±S.D. from 3 separate experiments.
RKO cells were plated in T-25 cm^2 flasks at a density of 2.5×10^5/flask. Cells were transfected on the following day with siRNA/LF2000 complexes for 6 hr. After medium replacement and additional incubation for 48 and 72 hr, respectively, cells were harvested, washed twice with PBS, resuspended in 1× binding buffer at a concentration of 1×10^6 cells/mL according to the manufacturer's protocol, stained with FITC Annexin V Apoptosis Detection Kit (BD Biosciences; San Jose, Calif.), and analyzed on the BD Accuri C6 Flow Cytometer (BD Accuri Cytometers Inc.; Ann Arbor, Mich.) at the UPCI Flow Cytometry Facility.

GC3/TK− cells = assay: Cell proliferation (WST-1) in thymidine kinase-deficient GC3/TK− cells; assay type: cell-based, human; conditions: 6 hr transfection, additional 5 days
Description: FIGS. 2A-B illustrate the effect of TK knockdown on the cytotoxicity of the FdU-modified ssiRNA. (A) RKO cells were transfected with 1 nM TK siRNA (lanes 3 and 4) or Mis-dU/dA (lane 5). After 6 hr, the medium was replaced with fresh medium. On the following day, cells were transfected with TS6-FdU/dA ssiRNA (1 nM) for 6 hr (lanes 2, 4, and 5) after which time, cells were harvested for immunoblot analysis. RKO cells were treated with 5-fluorouracil (5 nM) for 6 hr before harvesting (lane 6). (B) GC3/TK− cells were transfected with various concentrations of TS6-dU/dA or TS6-FdU/dA ssiRNA. After 6 hr, the medium was replaced and after an additional 5 days, cell proliferation was determined with the WST-1 assay;
The human colon cancer RKO cell line, originally obtained from ATCC, has been previously well-characterized and was maintained in RPMI-1640 (Invitrogen; Carlsbad, Calif.) with 10% (v/v) dialyzed fetal bovine serum at 37° C. in a humidified incubator with 5% CO2 (Reference 11). The thymidine kinase-deficient GC3/TK− cells were a gift from Dr. Janet Houghton (Reference 18). Cells were routinely authenticated by morphology and growth curve analysis. […]
RKO cells were plated in 96-well plates at a density of 800 cells/well. […] Cell proliferation/viability was quantified by the WST-1 assay (Roche; Indianapolis, Ind.).

Substance | IC50 [1] | biomarkers of DNA damage, γH2AX and p-ATM [2] | formation of the ITC immediately after transfection [3] | IC50 [4] | effect on TS protein expression (in words) [5] | Free TS (%) [5] | ITC-Bound TS (%) [5] | effect on TS mRNA expression (in words) (TS mRNA) | lower IC50 versus non-targeted mismatch-FdU/dA, clonogenic assay [1] | cleaved PARP, a marker of apoptosis [2] | p53 levels [2] | formation of the ITC after knockdown of thymidine kinase ([3]; TK siRNA 1 nM, next day TS6-FdU/dA 1 nM for 6 hr) | enhancement of IC50 versus non-targeted mismatch-FdU/dA, growth assay [4] | early and late apoptotic cells (RKO cells) | IC50 (GC3/TK− cells)
Mis-FdU/dA: control, non-targeted ssiRNA containing 5 FdU residues on the sense strand; SEQ ID NO: 21 and 22 (chain 1 GGAUACUGCCAAUCUCUAGGUUUUU; chain 2 CCUAGAGAUUGGCAGUAUCCAAAAA; chain 1: sugars from the 5' end r20 d5, [5FU] at 21, 22, 23, 24, 25, backbone not given here; chain 2: sugars from the 5' end r20 d5, backbone not given here) | 1.75 nM | little to no effect | formation of the ITC is observed | 2.88 nM | absolutely no inhibitory effect | 89.5 ± 26.2% | 45.6 ± 21.1% | absolutely no inhibitory effect |  |  |  |  |  |  | 
TS6-FdU/dA: TS-targeted ssiRNA, all 3′-end overhang dU of sense strand replaced with FdU (5 FdU); SEQ ID NO: 9 and 10 (chain 1 GGAUAUUGUCAGUCUUUAGGUUUUU; chain 2 CCUAAAGACUGACAAUAUCCAAAAA; chain 1: sugars from the 5' end r20 d5, [5FU] at 21, 22, 23, 24, 25, backbone not given here; chain 2: sugars from the 5' end r20 d5, backbone not given here) | 0.17 nM | strongly induced | formation of the ITC is observed | 0.81 nM |  | 29.8 ± 12.0% | 22.0 ± 11.8% |  | 10 fold | elevated | rapidly induced | prevented formation of the ITC | 3.5 fold | significant increase | 45.9 ± 18.6 nM
